Counter-ions that a name gives are not always drawn.
These compounds were tested against BTK (Homo sapiens (Human), UniProt Q06187) (assay: In Vitro BTK Kinase Assay: Btk-PolyGAT-LS Assay). Settings: active BTK enzyme 0.25 nM, ATP 10 μM, polyGAT 100 nM, 30 minutes.
Type: biochemical
Experimental: In Vitro BTK Kinase Assay: Btk-PolyGAT-LS Assay
The purpose of the BTK in vitro assay is to determine compound potency against BTK through the measurement of IC50. […] The BTK kinase reaction was done in a black 96 well plate (costar 3694). For a typical assay, a […] aliquot of a ATP/peptide master mix (final concentration; ATP 10 μM, polyGAT 100 nM) in kinase buffer (10 mM Tris-HCl pH 7.5, 10 mM MgCl2, 200 μM […], 5 mM DTT, 0.01% Triton X-100, and 0.2 mg/ml casein) is added to each well. Next, […] of a 4-fold, 40× compound titration in 100% DMSO solvent is added, followed by adding 15 uL of BTK enzyme mix in 1× kinase buffer (with a final concentration of 0.25 nM). The assay is incubated for 30 minutes before being stopped with […] of a 50 mM EDTA solution. Aliquots (5 uL) of the kinase reaction are transferred to a low volume white 384 well plate (Corning 3674), and […] of a 2× detection buffer (Invitrogen PV3574, with 4 nM Tb-PY20 antibody, Invitrogen PV3552) is added. The plate is covered and incubated for 45 minutes at room temperature. Time resolved fluorescence (TRF) on Molecular Devices M5 (332 nm excitation; 488 nm emission; 518 nm fluorescein emission) is measured.

Chain of BTK (Q06187 whole entry): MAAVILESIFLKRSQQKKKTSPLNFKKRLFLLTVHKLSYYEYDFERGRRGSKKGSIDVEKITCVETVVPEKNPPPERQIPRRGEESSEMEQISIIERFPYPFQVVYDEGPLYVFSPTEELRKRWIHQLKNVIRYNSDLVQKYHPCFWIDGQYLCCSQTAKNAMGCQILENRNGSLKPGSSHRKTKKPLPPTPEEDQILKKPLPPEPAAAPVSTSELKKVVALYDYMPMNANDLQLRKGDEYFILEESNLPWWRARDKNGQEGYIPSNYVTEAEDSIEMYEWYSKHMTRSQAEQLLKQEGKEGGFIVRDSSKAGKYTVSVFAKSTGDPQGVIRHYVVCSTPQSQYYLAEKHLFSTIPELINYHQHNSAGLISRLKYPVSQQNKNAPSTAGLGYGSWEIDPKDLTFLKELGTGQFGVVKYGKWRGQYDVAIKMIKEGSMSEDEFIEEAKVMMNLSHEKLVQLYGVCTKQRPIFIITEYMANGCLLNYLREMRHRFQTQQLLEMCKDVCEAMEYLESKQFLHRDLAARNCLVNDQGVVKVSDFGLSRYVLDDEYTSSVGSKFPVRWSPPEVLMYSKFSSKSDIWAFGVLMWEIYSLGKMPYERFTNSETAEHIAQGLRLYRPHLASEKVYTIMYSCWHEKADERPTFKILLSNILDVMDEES

Structure (SMILES)	IC50 [nM]
CC(C)(C)c1nnc(C(=O)NCc2ccc(-c3ncnn4cc(C5=CCOCC5)cc34)cc2C(F)F)o1 [Example 213]	1 to 10
Cc1c(CNC(=O)c2nc(C(C)(C)C)no2)ccc(-c2ccnc3cc(N4CCOCC4)nn23)c1F [Example 118]	1 to 10
CC(C)(C)c1nc(C(=O)NCc2cc(F)c(-c3ncnn4cccc34)cc2Cl)co1 [Example 134]	> 10
Cc1cc(-c2ncnn3cc(-c4cn(C)nc4C)cc23)ccc1CNC(=O)c1noc(C(C)(C)C)n1 [Example 108]	≤ 1
Cc1cc2c(-c3ccc(CNC(=O)c4noc(C(C)(C)C)n4)c(C)c3)ncnn2c1 [Example 55]	≤ 1
Cc1cc(-c2ncnn3cc(N4CCN(C)C(=O)C4)cc23)ccc1CNC(=O)c1noc(C(C)(C)C)n1 [Example 177]	≤ 1
Cc1cc(-c2ncnn3cccc23)ccc1CNC(=O)c1nc(C(C)(C)C)no1 [Example 152]	1 to 10
Cc1cc(-c2ccnn3ccnc23)ccc1CNC(=O)c1noc(C(C)(C)C)n1 [Example 21, 5-(tert-butyl)-N-(4-(imidazo[1,2-b]pyridazin-8-yl)-2-methylbenzyl)-1,2,4-oxadiazole-3-carboxamide trifluoroacetate]	1 to 10
Cn1cc(-c2cc3c(-c4ccc(CNC(=O)c5noc(C(C)(C)C)n5)c(CC(F)F)c4)ncnn3c2)cn1 [Example 231]	≤ 1
Cc1cc(-c2ncnn3cc(N4CCOCC4)cc23)ccc1CNC(=O)c1ccn(C(C)(C)C)n1 [Example 175]	1 to 10
Cc1cc(-c2ncnn3cc(N4CCO[C@@H](C)C4)cc23)ccc1CNC(=O)c1nc(C(C)(C)C)no1 (single isomer, unassigned) [Example 138]	≤ 1
Cc1cc(-c2ncnn3cc(N4CCn5ccnc5C4)cc23)ccc1CNC(=O)c1noc(C(C)(C)C)n1 [Example 120]	≤ 1
Cc1cc(-c2ncnn3cc(CC4CCOCC4)cc23)ccc1CNC(=O)c1noc(C(C)(C)C)n1 [Example 94]	> 10
COc1c(CNC(=O)c2noc(C(C)(C)C)n2)ccc(-c2ncnn3cccc23)c1F [Example 180]	1 to 10
COc1c(CNC(=O)c2noc(C(C)(C)C)n2)ccc(-c2ncnn3cc(-c4cnn(C)c4)cc23)c1F [Example 235]	≤ 1
Cc1cc(-c2ncnn3cc(-c4cn[nH]c4)cc23)ccc1CNC(=O)c1noc(C(C)(C)C)n1 [Example 85]	≤ 1
Cc1cc(-c2ncnn3cc(N4CCN(C)[C@H](C)C4)cc23)ccc1CNC(=O)c1nc(C(C)(C)C)no1 (single isomer, unassigned) [Example 27]	≤ 1
CC(C)(C)c1nnc(C(=O)NCc2ccc(-c3ncnn4cc(N5CCOCC5)cc34)c(F)c2C(F)F)o1 [Example 199]	1 to 10
CC(C)(C)c1cc(C(=O)NCc2cc(F)c(-c3ncnn4cccc34)cc2Cl)no1 [Example 135]	> 10
CC(C)(C)c1nc(C(=O)NCc2ccc(-c3ncnn4cccc34)c(F)c2C2CC2)no1 [Example 62, 5-(tert-butyl)-N-(2-cyclopropyl-3-fluoro-4-(pyrrolo[2,1-f][1,2,4]triazin-4-yl)benzyl)-1,2,4-oxadiazole-3-carboxamide trifluoroacetate]	1 to 10
CC(C)(C)c1noc(C(=O)NCc2ccc(-c3ncnn4cc(N5CCOCC5)cc34)cc2C2CC2)n1 [Example 206]	≤ 1

Structure (SMILES)	IC50 [nM]
Cc1cc(-c2ccnn3cnnc23)ccc1CNC(=O)c1noc(C(C)(C)C)n1 [Example 47]	> 10
Cn1cc(-c2cc3c(-c4ccc(CNC(=O)c5noc(C(C)(C)C)n5)c(CC(F)F)c4F)ncnn3c2)cn1 [Example 233]	≤ 1
Cc1cc(-c2ncnn3cc(C4=CCOCC4)cc23)ccc1CNC(=O)c1nnn(C(C)(C)C)n1 [Example 128]	≤ 1
COC1CN(C(=O)c2cc3c(-c4ccc(CNC(=O)c5noc(C(C)(C)C)n5)c(C)c4)ncnn3c2)C1 [Example 217]	≤ 1
Cc1cc(-c2ncnn3cc(N4CCN(C)CC4)cc23)ccc1CNC(=O)c1nc(C(C)(C)C)no1 [Example 69, 3-(tert-butyl)-N-(2-methyl-4-(6-(4-methylpiperazin-1-yl)pyrrolo[2,1-f][1,2,4]triazin-4-yl)benzyl)-1,2,4-oxadiazole-5-carboxamide]	≤ 1
Cc1cc(-c2ncnn3cc(-c4cnsc4)cc23)ccc1CNC(=O)c1noc(C(C)(C)C)n1 [Example 172]	> 10
Cn1cc(-c2cc3c(-c4ccc(CNC(=O)c5nc(C(C)(C)C)no5)c(C(F)F)c4F)ncnn3c2)cn1 [Example 194]	≤ 1
Cc1cc(-c2ncnn3cc(C4CCOCC4)cc23)ccc1CNC(=O)c1nc(C(C)(C)C)no1 [Example 72, 3-(tert-butyl)-N-(2-methyl-4-(6-(tetrahydro-2H-pyran-4-yl)pyrrolo[2,1-f][1,2,4]triazin-4-yl)benzyl)-1,2,4-oxadiazole-5-carboxamide trifluoroacetate]	1 to 10
Cc1cc(-c2ncnn3cc(N4CCO[C@H](C)C4)cc23)ccc1CNC(=O)c1coc(C(C)(C)C)n1 (single isomer, unassigned) [Example 143]	≤ 1
Cc1cc(-c2ncnn3cc(-c4cnn(C)c4)cc23)ccc1CNC(=O)c1cn(C(C)(C)C)nn1 [Example 166]	≤ 1
Cc1cc(-c2ncnn3cc(N4CCN5CC(F)(F)C[C@H]5C4)cc23)ccc1CNC(=O)c1nc(C(C)(C)C)no1 [Example 123]	≤ 1
COCc1cc2c(-c3ccc(CNC(=O)c4noc(C(C)(C)C)n4)c(C)c3)ncnn2c1 [Example 77, 5-(tert-butyl)-N-(4-(6-(methoxymethyl)pyrrolo[2,1-f][1,2,4]triazin-4-yl)-2-methylbenzyl)-1,2,4-oxadiazole-3-carboxamide hydrochloride]	1 to 10
Cc1cc(-c2ncnn3cc(-c4ccccn4)cc23)ccc1CNC(=O)c1noc(C(C)(C)C)n1 [Example 230]	≤ 1
Cn1cc(-c2cc3c(-c4ccc(CNC(=O)c5cnn(C(C)(C)C)c5)c(C(F)(F)F)c4)ncnn3c2)cn1 [Example 61, 1-(tert-butyl)-N-(4-(6-(1-methyl-1H-pyrazol-4-yl)pyrrolo[2,1-f][1,2,4]triazin-4-yl)-2-(trifluoromethyl)benzyl)-1H-pyrazole-4-carboxamide]	≤ 1
CC(C)(C)c1nnc(C(=O)NCc2ccc(-c3ncnn4cc(N5CCOCC5)cc34)c(F)c2C2CC2)o1 [Example 163]	1 to 10
Cc1cc(-c2ncnn3cc(N4CCOCC4C)cc23)ccc1CNC(=O)c1noc(C(C)(C)C)n1 (stereo not drawn) [Example 229]	1 to 10
Cn1cc(-c2cc3c(-c4ccc(CNC(=O)c5coc(C(C)(C)C)n5)c(C(F)F)c4)ncnn3c2)cn1 [Example 211]	≤ 1
Cc1cc(-c2ncnn3cc(-c4cnn(C)c4)cc23)ccc1CNC(=O)c1noc(C(C)(C)CF)n1 [Example 41, 5-(1-fluoro-2-methylpropan-2-yl)-N-(2-methyl-4-(6-(1-methyl-1H-pyrazol-4-yl)pyrrolo[2,1-f][1,2,4]triazin-4-yl)benzyl)-1,2,4-oxadiazole-3-carboxamide]	≤ 1
Cc1cc(-c2ncnn3cc(-c4cn(C)nn4)cc23)ccc1CNC(=O)c1noc(C(C)(C)C)n1 [Example 106]	≤ 1
Cc1cc(-c2ncnn3cc(-c4cnn(C)c4C)cc23)ccc1CNC(=O)c1noc(C(C)(C)C)n1 [Example 109]	≤ 1
Cc1cc(-c2ncnn3cc(N4CCO[C@@H](C)C4)cc23)ccc1CNC(=O)c1nnn(C(C)(C)C)n1 (single isomer, unassigned) [Example 140]	1 to 10

From US12391697B2, “Condensed bi-heterocycles as inhibiting agents for Bruton's tyrosine kinase” (BIOGEN MA INC., priority 2019, dated 2025)
